The source of these data is US10259776B2, “Branched 3-phenylpropionic acid derivatives and their use” (BAYER INTELLECTUAL PROPERTY GMBH, priority 2011, dated 2019).

The target of test [1] is soluble guanylate cyclase (sGC) (Rattus norvegicus (Rat), UniProt P20595). Kind of test: Stimulation of sGC enzyme activity (PPi detection, luciferase). It is filed as biochemical. The conditions noted are these: sGC enzyme in vitro. Here is the method: Soluble guanylate cyclase (sGC) converts on stimulation GTP into cGMP and pyrophosphate (PPi). PPi is detected with the aid of the assay described below. The signal produced in the assay increases as the reaction progresses and serves as a measure of the sGC enzyme activity under the given stimulation.
To carry out the assay, 29 μl of enzyme solution [0-10 nM soluble guanylate cyclase (prepared according to Honicka et al., J. Mol. Med. 77, 14-23 (1999)) in 50 mM TEA, 2 mM MgCl2, 0.1% BSA (fraction V), 0.005% Brij®, pH 7.5] are initially introduced into a microplate, and 1 μl of the substance to be tested (as a serially diluted solution in DMSO) is added. The mixture is incubated at room temperature for 10 min. […] The enzyme reaction is started by adding 20 μl of substrate solution [1.25 mM guanosine 5′-triphosphate (Sigma) in 50 mM TEA, 2 mM MgCl2, 0.1% BSA (fraction V), 0.005% Brij®, pH 7.5] and measured continuously in a luminometer. The extent of the stimulation by the substance to be tested can be determined relative to the signal of the unstimulated reaction. […]

Test [2] deals with sGC in the CHO reporter cell (Rattus norvegicus (Rat), UniProt P20595). Briefly: Action at a recombinant guanylate cyclase reporter cell line. The class given is cell-based. The settings on record: CHO reporter cell in vitro. The method, then:
The cellular action of the compounds according to the invention is determined at a recombinant guanylate cyclase reporter cell line, as described in F. Wunder et al., Anal. Biochem. 339, 104-112 (2005).

The target in test [3] is Haem-free sGC (recombinant soluble guanylate cyclase) (Rattus norvegicus (Rat), UniProt P20595). Kind of test: Stimulation of recombinant soluble guanylate cyclase (sGC) in vitro, haem-free enzyme. The conditions noted are these: haem-free (0.5% Tween 20), n = 5. It is filed as biochemical. The method, then: Investigations on the stimulation of recombinant soluble guanylate cyclase (sGC) by the compounds according to the invention with and without sodium nitroprusside, and with and without the haem-dependent sGC inhibitor 1H-1,2,4-oxadiazolo[4,3a]quinoxalin-1-one (ODQ), are carried out by the method described in detail in the following reference: M. Hoenicka, E. M. Becker, H. Apeler, T. Sirichoke, H. Schroeder, R. Gerzer and J.-P. Stasch, “Purified soluble guanylyl cyclase expressed in a baculovirus/Sf9 system: Stimulation by YC-1, nitric oxide, and carbon oxide”, J. Mol. Med. 77 (1999), 14-23. The haem-free guanylate cyclase is obtained by adding Tween 20 to the sample buffer (0.5% in the final concentration).
(§1) The activation of sGC by a test substance is reported as x-fold stimulation of the basal activity.

Test [4] has as its target Haem-containing sGC (recombinant soluble guanylate cyclase) (Rattus norvegicus (Rat), UniProt P20595). Kind of test: Stimulation of recombinant soluble guanylate cyclase (sGC) in vitro, haem-containing enzyme. It is filed as biochemical. The conditions noted are these: for Stimulation (x-fold) of recombinant sGC, haem-containing sGC, basal: n = 5.
Text: Hoenicka, E. M. Becker, H. Apeler, T. Sirichoke, H. Schroeder, R. Gerzer and J.-P. Stasch, “Purified soluble guanylyl cyclase expressed in a baculovirus/Sf9 system: Stimulation by YC-1, nitric oxide, and carbon oxide”, J. Mol. Med. 77 (1999), 14-23. The haem-free guanylate cyclase is obtained by adding Tween 20 to the sample buffer (0.5% in the final concentration).
as §1

Sequence of Haem-containing sGC (recombinant soluble guanylate cyclase) (P20595 whole entry): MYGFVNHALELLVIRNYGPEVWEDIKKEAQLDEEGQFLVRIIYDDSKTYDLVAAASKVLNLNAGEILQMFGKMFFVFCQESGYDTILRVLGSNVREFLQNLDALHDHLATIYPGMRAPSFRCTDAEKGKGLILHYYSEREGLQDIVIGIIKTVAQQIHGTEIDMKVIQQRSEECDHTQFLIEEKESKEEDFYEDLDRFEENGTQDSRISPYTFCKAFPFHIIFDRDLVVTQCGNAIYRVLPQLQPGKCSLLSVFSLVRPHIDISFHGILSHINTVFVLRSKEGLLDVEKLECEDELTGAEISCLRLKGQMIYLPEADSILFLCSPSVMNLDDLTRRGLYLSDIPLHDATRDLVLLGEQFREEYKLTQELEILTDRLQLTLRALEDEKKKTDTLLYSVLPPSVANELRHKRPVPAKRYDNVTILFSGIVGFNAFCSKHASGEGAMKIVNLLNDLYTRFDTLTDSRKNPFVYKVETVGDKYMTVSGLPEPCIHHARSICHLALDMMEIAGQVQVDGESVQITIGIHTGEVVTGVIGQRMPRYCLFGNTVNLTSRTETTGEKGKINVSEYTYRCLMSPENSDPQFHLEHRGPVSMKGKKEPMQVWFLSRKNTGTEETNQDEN
Sequence of Haem-containing sGC (recombinant soluble guanylate cyclase) (P19686 whole entry partner): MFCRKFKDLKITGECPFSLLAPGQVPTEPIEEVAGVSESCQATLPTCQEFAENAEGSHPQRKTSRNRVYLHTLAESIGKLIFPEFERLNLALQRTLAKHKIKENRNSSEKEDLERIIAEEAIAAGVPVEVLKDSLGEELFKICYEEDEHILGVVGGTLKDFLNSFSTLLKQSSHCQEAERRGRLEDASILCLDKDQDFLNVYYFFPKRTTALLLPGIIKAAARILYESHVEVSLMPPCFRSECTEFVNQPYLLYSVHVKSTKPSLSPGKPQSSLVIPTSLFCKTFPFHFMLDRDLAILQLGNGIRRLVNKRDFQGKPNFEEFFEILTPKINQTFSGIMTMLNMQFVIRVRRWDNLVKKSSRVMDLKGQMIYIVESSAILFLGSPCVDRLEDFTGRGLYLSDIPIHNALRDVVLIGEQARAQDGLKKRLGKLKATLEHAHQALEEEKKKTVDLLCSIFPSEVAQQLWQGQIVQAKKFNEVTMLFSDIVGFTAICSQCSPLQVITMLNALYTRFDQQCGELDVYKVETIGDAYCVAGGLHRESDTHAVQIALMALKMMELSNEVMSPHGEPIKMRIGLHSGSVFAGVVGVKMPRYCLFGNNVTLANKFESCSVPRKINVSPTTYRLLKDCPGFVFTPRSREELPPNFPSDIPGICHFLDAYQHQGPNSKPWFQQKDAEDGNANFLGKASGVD
Sequence of Haem-free sGC (recombinant soluble guanylate cyclase) (P20595 whole entry): as the sequence (P20595 whole entry) above
Sequence of Haem-free sGC (recombinant soluble guanylate cyclase) (P19686 whole entry partner): as the sequence (P19686 whole entry partner) above
Sequence of sGC in the CHO reporter cell (P20595 whole entry): as the sequence (P20595 whole entry) above
Sequence of sGC in the CHO reporter cell (P19686 whole entry partner): as the sequence (P19686 whole entry partner) above
Sequence of soluble guanylate cyclase (sGC) (P20595 whole entry): as the sequence (P20595 whole entry) above
Sequence of soluble guanylate cyclase (sGC) (P19686 whole entry partner): as the sequence (P19686 whole entry partner) above

Take `CC(C(=O)O)C(c1ccc(Cl)c(NC(=O)C(c2ccc(Cl)cc2)[C@@H](C)C(F)(F)F)c1)C1CC1` (stereo partly drawn) [Example 30, 3-(4-Chloro-3-{[(3R)-2-(4-chlorophenyl)-4,4,4-trifluoro-3-methylbutanoyl]amino}phenyl)-3-cyclopropyl-2-methylpropanoic acid]: the “MEC (minimum effective concentration), activating action at the sGC enzyme” value in test [1] is 17 nM. For the same compound, the “MEC (minimum effective concentration), sGC-activating activity in the CHO reporter cell” value in test [2] amounted to 10 nM.
Take `C[C@H]([C@H](C(=O)Nc1cc(C(CC(=O)O)C2CC2)ccc1Cl)c1ccc(Cl)cc1)C(F)(F)F` (single isomer, unassigned; (+)) [Example 22]: the “Stimulation (x-fold) of recombinant sGC, haem-free sGC, basal” value came out at 1.2 ± 0.1 x-fold in test [3] (0.01 μM Example 22), 1.6 ± 0.5 x-fold in test [3] (0.1 μM Example 22), 4.9 ± 1.5 x-fold in test [3] (1.0 μM Example 22) and 14.2 ± 2.0 x-fold in test [3] (10 μM Example 22). For the same compound, the “MEC (minimum effective concentration), sGC-activating activity in the CHO reporter cell” value in test [2] amounted to 1.8 nM. The “Stimulation (x-fold) of recombinant sGC, haem-containing sGC, +0.01 μM DEA/NO” value in test [4] (0.01 μM Example 22) amounted to 4.4 ± 1.3 x-fold; in test [4] (0.1 μM Example 22), 3.4 ± 0.9 x-fold; in test [4] (1.0 μM Example 22), 4.4 ± 1.4 x-fold; in test [4] (10 μM Example 22), 7.8 ± 2.5 x-fold. For the same compound, the “Stimulation (x-fold) of recombinant sGC, haem-containing sGC, +10 μM ODQ” value in test [4] (0.01 μM Example 22) amounted to 5.7 ± 1.6 x-fold; in test [4] (0.1 μM Example 22), 6.1 ± 1.7 x-fold; in test [4] (1.0 μM Example 22), 8.4 ± 2.2 x-fold; in test [4] (10 μM Example 22), 18.3 ± 5.4 x-fold. The “Stimulation (x-fold) of recombinant sGC, haem-containing sGC, basal” value in test [4] (0.01 μM Example 22) came out at 1.6 ± 0.3 x-fold; in test [4] (0.1 μM Example 22), 1.6 ± 0.5 x-fold; in test [4] (1.0 μM Example 22), 2.4 ± 1.0 x-fold; in test [4] (10 μM Example 22) it was 4.9 ± 1.2 x-fold. Also, the “Effect of combination with the NO donor DEA/NO on sGC stimulation” value in test [4] (haem-containing sGC, combination with DEA/NO) is “no synergistic effect”.
